Read-outs that look alike come from different tables or passages of the source.
Test: Second sacrificial agent testing protocol: paste air measurements with DDBS (0.0125 wt %) and rating; as to Overall performance rating (second protocol rating): key: 0: Fail; 1: Poor; 2: Good; 3: Preferred; 4: Most preferred; as to SA Rating (0-4): key: 0: Fail; 1: Poor; 2: Good; 3: Preferred; 4: Most preferred
Method: The second sacrificial agents evaluation protocol has been designed to assess the relative potential value of candidate sacrificial agents with a maximum of five paste air measurements.
The first two measurements (of entrained air) are carried out with a standard AEA in a portland cement paste and in a FA:cement paste; these two tests provide reference values which can be used for the relative assessment of a series of sacrificial agents. The other three paste air measurements pertain to the properties and effectiveness of the sacrificial agents.
1. Measurement of the air entrained by a standard air-entraining admixture in a cement paste of fixed composition and fluidity; the latter is a reference system which provides ‘reference’ air entrainment values (‘A’ in FIG. 8).
2. […] The difference between ‘B’ and ‘A’ in FIG. 8 is the reduction in air entrainment due to the presence of the fly ash; this is illustrated as ‘C’ in FIG. 8.
In the present SA testing and evaluation protocol, the fly ash selected should remain the same for the entire set of additives tested, in order to provide reliable relative performance ranking. For the present series of test, the Fly Ash selected was the one identified as B1 in Table 1 below; the physico-chemical properties of this fly ash are reported in Table 1.
In testing for the relative performance of the sacrificial agent, the sacrificial agent dosage was chosen in the range 0-0.1 wt %, which corresponds to typical dosage values observed in paste, mortar and concrete tests reported in Tables 2, 3 and 4 and Tables 7 to 34.
3. Measurement of the air entrainment of the SA, by itself, in a cement-only paste at a dosage of 0.1 wt %; this is illustrated as ‘D’ in FIG. 8.
4. Measurement of the air entrained by DDBS in the FA-cement paste comprising 0.05% wt SA, under the same conditions as described in 2 above. The air entrainment value observed in this system, compared to that observed in the absence of the SA, yields the air recovery due to the SA, and is illustrated schematically as ‘E’ in FIG. 8.
5. Same as in 4 above, but with a higher SA concentration at 0.1 wt %; the air entrainment observed, again compared to the value observed in the absence of the SA, yields a second value of air recovery by the SA and is illustrated as ‘F’ in FIG. 8.
For the relative performance rating of the group of products chosen as potential SA and listed in Table 36, the following rating scheme (Tables A and B) was adopted (referring to FIG. 8 and quantities defined therein):
1: Chemical name of compound tested as potential sacrificial agent • Col. 2: Level of air entrainment by the candidate sacrificial agent, at a concentration of 0.1 wt %, in a Portland cement paste ([…]) • Col. […] 5: Sacrificial agent overall rating index (described below) • Col. 6: Hydrophilic-Lipophilic Balance (HLB) values of candidate sacrificial agent (source and significance of HLB data given below) • Col. 7: Logarithm of the Oil(octanol)/water partition coefficient (Kow) of the candidate sacrificial agents (source and significance of data given below).

[1] = B1 FA/cement paste, 0.0125 wt % DDBS, 0.05 wt % SA
[2] = B1 FA/cement paste, 0.0125 wt % DDBS, 0.10 wt % SA
[3] = Portland cement paste (PCA), […]
[4] = sacrificial agent overall rating index
[5] = sum of ratings of air entrainment recovery by 0.05% and 0.1% SA, DDBS 0.0125 wt %, 50:50 B1 fly ash:cement paste

Row | SMILES | B1 + 0.0125% DDBS + 0.05% SA (air entrainment) [1] | B1 + 0.0125% DDBS + 0.1% SA (air entrainment) [2] | PCA + 0.1% SA (level of air entrainment by the candidate sacrificial agent) [3] | SA Rating (0-4) [4] | Overall performance rating (second protocol rating) [5] | B1 + 0.0125% DDBS + 0.05% SA (air entrainment) (B1 FA/cement paste, […]) | B1 + 0.0125% DDBS + 0.1% SA (air entrainment) (B1 FA/cement paste, […]) | other results
1 | CC(=O)CC(C)C [Methyl isobutylketone (MIBK)] | 5.6 | 3.9 | 0.3 | 2 |  |  |  | 
2 | CC(=O)CC(C)C [Methyl isobutylketone] |  |  |  |  | 2 |  |  | 
3 | CCCCCCCCCCCC(=O)OC [Methyllaurate] | 4.6 | 2.8 | 1.0 | 1 | 1 |  |  | 
4 | CCCCCCCC(=O)OC [Methyloctanoate] | 4.8 | 2.2 | 0.0 | 2 | 2 |  |  | 
5 | CCCCCCCC/C=C\CCCCCCCC(=O)OC [Methyloleate] | 5.1 | 2.7 | 0.5 | 2 | 2 |  |  | 
6 | CCCCCCCCCCCCCCCC(=O)OC [Methylpalmitate] |  |  | 2.5 | 2 |  | 5.3 | 3.4 | Overall performance rating (second protocol rating): 2
7 | CCC(=O)OC [Methylpropionate] |  |  | 0.2 | 0 |  | 2.7 | 3.5 | 
8 | CCCCOC(=O)c1ccccc1C(=O)OCCCC [N-Butyl phthalate] | 2.2 | 2.1 |  | 0 |  |  |  | PCA + 0.1% SA (level of air entrainment by the candidate sacrificial agent) (Portland cement paste (PCA), 0.1 wt % SA, no DDBS): 0.0
9 | CC(C)(C)CO [Neopentanol] |  |  | 0.8 | 3 |  | 4.9 | 4.7 | Overall performance rating (second protocol rating): 3
10 | CCCCCCCC/C=C\CCCCCCCC(=O)O [Oleic acid] |  |  | 2.1 | 0 |  | 2.2 | 1.9 | 
11 | O=C(O)Cc1ccccc1 [Phenyl acetic acid] |  |  | 0.2 | 1 |  | 2.8 | 4.2 | Overall performance rating (second protocol rating): 1
12 | OCCc1ccccc1 [Phenyl ethyl alcohol] |  |  | 0.7 | 3 |  | 4.5 | 5.5 | Overall performance rating (second protocol rating): 3
13 | CC(O)COc1ccccc1 (stereo not drawn) [Propylene Glycol Phenyl Ether] | 7.2 | 6.7 | 1.0 | 4 | 4 |  |  | 
14 | CC(O)CO (stereo not drawn) [Propylene Glycol] |  |  | 0.5 | 0 |  | 3.0 | 3.6 | 
15 | CC1COC(=O)O1 (stereo not drawn) [Propylene carbonate] | 2.5 | 2.9 | 0.4 | 0 |  |  |  | 
16 | O=C([O-])c1ccccc1O.[Na+] [Sodium Salicylate] |  |  |  |  |  |  |  | B1 + 0.0125% DDBS + 0.05% SA (air entrainment): 2.9; B1 + 0.0125% DDBS + 0.1% SA (air entrainment): 3.0; PCA + 0.1% SA (level of air entrainment by the candidate sacrificial agent): 0.4; SA Rating (0-4): 0

Reference: patent US7892350B2, “Sacrificial agents for fly ash concrete” (Boral Material Technologies Inc., priority 2003, dated 2011)
